The record followed here is US6835563B1, “Compositions and methods for increasing cholesterol efflux and raising HDL ATP binding cassette transporter protein ABC1” (CV Therapeutics, priority 1999, dated 2004).

Test [1] concerns ABC1 protein. Description: Cell-surface ABC1 protein by biotin labeling and immunoprecipitation. The class given is cell-based, human. The following applies: serum deprivation and cholesterol-loading (30 μg/ml, 48 h), normal and TD1 cells.
Method: Cell-surface labeling and immunoprecipitation was used to determine whether increased expression of ABC1 protein in the plasma membrane is correlated with an increase in cholesterol efflux (FIG. 10). The relative amount of ABC1 on the cell surface was determined by cross-linking surface proteins on intact cells with the membrane-impermeable agent sulfo-NHS-biotin, followed by the steps of membrane solubilization, immunoprecipitation with ABC1 antibody, SDS-PAGE, and detection with streptavidin.
Both normal and TD1 cells were cultured under control conditions and conditions known to increase apolipoprotein-mediated cholesterol efflux (Oram, et al., J. Lip. Res., 40: 1769-1781 (1999)). […] Cholesterol-loaded cells were grown to confluence in DMEM/10% FBS and then incubated in DMEM/BSA for 48 hours with 30 μg/ml cholesterol plus 18 hours with no additives (cholesterol). […]
Detection of ABC1 Protein: The eluted biotinylated proteins were subjected to SDS-PAGE (6% gel; 150V, 5 hours) and transferred to nitrocellulose membrane (200 mA, 18 hours). The nitrocellulose was probed with streptavidin-horse radish peroxidase (Amersham Pharmacia, Piscataway, N.J.; Cat. #RPN 1231) diluted 300-fold and detected by enhanced chemiluminescence labeling (ECL) according to vendor's protocol (Amersham Pharmacia, Piscataway, N.J.). […]
Test [2] deals with normal fibroblasts. The test is described as follows: HDL- and apo A-I-mediated [3H]cholesterol efflux from normal fibroblasts. The following applies: HDL 40 μg protein/ml or apo A-I 10 μg/ml, up to 48 h. Format: cell-based, human. As for the experimental part:
(§1) Cell Cultures: Human fibroblasts were obtained from skin explants from two normal subjects (NL1) and three unrelated patients with Tangier disease (TD). TD1 cells were obtained from a person with extremely low plasma HDL cholesterol and apo A-I levels and clinical symptoms typical of Tangier disease. […] TD3 cells were obtained from a person with Tangier disease who presented with orange tonsil remnants, asymmetrical motor neuropathy, plasma HDL cholesterol of 5 mg/dL, and LDL cholesterol of 16 mg/dL (Lawn et al., J. Clin. Invest., 104, R25-R31 (1999)). The normal cells and TD subject cells were immortalized as described in Oram et al., J. Lipid. Res., 40: 1769-1781 (1999). Briefly, the cells were transfected with amphotropic retroviruses containing vectors with inserts of human papillomavirus 16-oncogenes E6 and E7 and a neomycin resistance selectable marker. Control cells were infected with vector alone (mock-infected). Pooled cell populations were selected in the presence of G418 for two passages, after which G418 was excluded from the medium. Fibroblasts were used between the fifth and sixteenth passage (primary) or sixth and fourteenth passage (immortalized). The immortalized normal and TD cells were seeded into 16-mm wells or 35-mm dishes and grown to confluence in. Dulbecco's modified. Eagle's medium (DMEM) plus 10% fetal bovine serum (FBS) before experimental use. […]

Test [3] relates to RAW 264.7 cells. The test is described as follows: Apo A-I-mediated cholesterol efflux from cholesterol-loaded RAW 264.7 macrophage cells. As to conditions: control cells, apo A-I only.
Method: Assay to Measure Lipid Efflux: Apo AI-mediated efflux of cholesterol and, phospholipid was assayed according to the method described in. […] RAW 264.7 cells were cholesterol-loaded through the scavenger receptor by 24-hour incubation with acetylated LDL as described in Smith et al., J. Biol. Chem., 271:30647-30655 (1996). Briefly, RAW 264.7 cells in 24-well dishes were cholesterol-loaded and labeled overnight in 0.5 ml of DMEM supplemented with 50 μl/ml 1M glucose, 10 μl/ml 200 mM glutamine and 2% BSA and with 50 μg/ml acetylated low density lipoprotein (AcLDL) and [^3H]-cholesterol which had been pre-incubated for 30 minutes at 37° C. with AcLDL to yield a final concentration of 0.33 μCi/ml [^3H]-cholesterol. Cells were subsequently washed five times with PBS containing 1% BSA and incubated overnight (16-18 hours) in DMEM/BSA to allow for equilibrium of cholesterol pools. After equilibrium of cholesterol pools, cells were rinsed four times with PBS/BSA and incubated for one hour at 37° C. with DMEM/BSA before the efflux incubations. Efflux medium (DMEM/BSA) containing either albumin alone (control), albumin plus HDL (40 μg protein/ml), or albumin plus apo A-I (10 μg/ml, Biodesign International, Kennebunk, Me.) was added and the cells were incubated for 4, 24, or 48 hours. […] The radioactivity found in the culture medium was measured by scintillation counting after a 15-minute centrifugation at 12,000 g. The radioactivity in the cells was measured by scintillation counting after solubilization in 0.5 ml of 0.2M NaOH (Smith et al., J. Biol. Chem., 271:30647-30655 (1996)) or extraction in hexane:isopropanol (3:2 v/v) as described in Francis, et al., J. Clin. Invest., 96, 78-87 (1995). […] The efflux of cholesterol or phospholipid was expressed as the percentage of tritiated lipid counts in the medium over the total tritiated lipid counts recovered from the cells and medium (cpm medium/cpm (medium+lysate)×100).
Briefly, RAW 264.7 cells suspended at a density of 1.25×10^5 cells/ml were grown in DMEM/10% FBS supplemented with pyruvate. After 24 hours, the medium was removed and replaced with DMEM/BSA plus radiolabeled cholesterol (1 μCi/ml ^3[H]-cholesterol) and 50 μg/ml of acetylated LDL for 24 hours. The cells were then maintained for 24 hours in equilibrium medium consisting of DMEM/BSA plus either apo A-I alone (20 μg/ml), apo A-I and 8-bromo 3′, 5′ cAMP (1 mM) or apo A-I and rolipram (50 μM).
For test [4], the system named is ABC1 mRNA. Description: ABC1 mRNA by quantitative RT-PCR in normal fibroblasts. Format: cell-based, human. As to conditions: apo A-I 10 μg/ml 18-24 h. As for the experimental part:
(§2) To determine whether ABC1 plays a rate-limiting role in cellular sterol efflux, the synthesis of ABC1 was measured under various cellular conditions related to cholesterol efflux processes. Specifically, normal fibroblasts and TD fibroblasts were individually exposed to conditions of excess cAMP, cholesterol, or Apo A-I. Cell cultures of normal skin fibroblasts and TD1 and TD2 fibroblasts were prepared as described in Example 1. The level of ABC1 mRNA was measured by RT-PCR. Cell cultures: Immortalized cell cultures of normal skin fibroblasts and TD1 and TD2 fibroblasts were prepared as described in Example 1. Cells were grown to subconfluence in DMEM/10% FBS before replacement with DMEM/BSA and the indicated additive for 24 or 48 hours. RNA was prepared as described in Example 2. RT-PCR: Quantitative PCR was carried out using the GeneAmp 5700 Sequence. Detection System (Perkin-Elmer Applied Biosystems, Foster City, Calif.). Briefly, 500 ng of DNase-treated mRNA was reverse transcribed using random hexamer primers at 2.5 μM. Approximately 5% of this reaction was amplified by PCR using the SYBR green core kit (PE. Applied Biosystems, Foster City, Calif.; Cat. #4304886) and human ABC1 primers […] […] The mRNA in each sample was quantitated by detecting the increase in fluorescence caused by SYBR green binding to the double-stranded amplification product generated during each PCR cycle. […]

Test [5] relates to TD fibroblasts. The test is described as follows: HDL- and apo A-I-mediated [3H]cholesterol efflux from Tangier disease fibroblasts. The following applies: HDL 40 μg protein/ml or apo A-I 10 μg/ml, up to 48 h. The class given is cell-based, human. As for the experimental part:
as §1

The test system of test [6] is ABC1 mRNA. Description: ABC1 mRNA by quantitative RT-PCR in TD1 and TD2 fibroblasts. The class given is cell-based, human. The following applies: apo A-I 10 μg/ml. Here is the method: as §2

As to `CC(C)CCC[C@@H](C)[C@H]1CC[C@H]2[C@@H]3CC=C4C[C@@H](O)CC[C@]4(C)[C@H]3CC[C@]12C` [cholesterol], the “cell-surface expression of ABC1” value in test [1] is “markedly increased”.
In the case of “apo A-I: apolipoprotein cholesterol acceptor (Biodesign International)”, the “efflux of [3H]-cholesterol on addition to albumin medium” value in test [2] is given as “promoted the efflux”; in test [5], “little or no effect”. For the same compound, the cholesterol efflux in test [3] is reported as 1890 c.p.m. Besides, the “ABC1 mRNA expression on subsequent exposure of cholesterol-loaded cells” value in test [4] is listed as “marked decrease”. For the same compound, the “ABC1 expression on exposure of cholesterol-loaded cells” value in test [6] (TD1 cells) is on record as “did not alter ABC1 expression”; in test [6] (TD2 cells), “slightly increased ABC1 expression”.
